Article PMC10693528, “A high-throughput metabolomics in vitro platform for the characterization of hepatotoxicity” (Cell Biology and Toxicology, 2023)

Tested on: HepG2 cells
Experiment: LC-MS/MS targeted intracellular metabolomics
Assay type: cell-based, human
Conditions: 48 h
In short: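 Metabolites extracted in-plate from HepG2 cells with 80% isopropanol and analysed by RP and HILIC LC-MS/MS in positive and negative mode. Data normalised to lyophilised untreated HepG2 reference samples and to each sample's median across 221 metabolites. Treated versus control compared by Welch t test on log-transformed data.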

[1] = Suppl Fig 9, C3 (EC15 ATP), Bezafibrate lines = Plates 1-6 in order
[2] = Suppl Fig 10, C3 (C2 for Aroclor)

O=C(O)c1cc(Oc2ccc(C(F)(F)F)cc2Cl)ccc1[N+](=O)[O-] [Acifluorfen]
2'-Deoxycytidine level vs controls [1]: 0.56 | 5-Hydroxytryptophan level vs controls [1]: 0.74 | Carnitine level vs controls [1]: 0.98 | Ceramide (d18:1.C20:0) level vs controls [1]: 0.74 | Ceramide (d18:1.C24:1) level vs controls [1]: 0.72 | Ceramide (d18:1.C24:2) level vs controls [1]: 0.68 | Ceramide (d18:2.C24:1) level vs controls [1]: 0.64 | Choline plasmalogen (C36:4) level vs controls [1]: 0.75 | Choline plasmalogen (C36:5) level vs controls [1]: 0.70 | Creatine level vs controls [1]: 0.87 | Glycerol-3-phosphate level vs controls [1]: 0.90 | Hexanoylcarnitine level vs controls [1]: 0.70 | Ketoleucine level vs controls [1]: 0.80 | Lysophosphatidylcholine (C14:0) level vs controls [1]: 1.75 | Lysophosphatidylcholine (C16:0) level vs controls [1]: 1.17 | Lysophosphatidylcholine (C16:1) level vs controls [1]: 1.22 | Lysophosphatidylcholine (C20:4) level vs controls [1]: 0.94 | Lysophosphatidylcholine (C24:0) level vs controls [1]: 1.25 | Lysophosphatidylcholine (C24:1) level vs controls [1]: 1.00 | Lysophosphatidylethanolamine (C16:0) level vs controls [1]: 1.67 | Lysophosphatidylethanolamine (C18:0) level vs controls [1]: 1.69 | Lysophosphatidylethanolamine (C18:1) level vs controls [1]: 1.09 | N-Acetylaspartate level vs controls [1]: 1.50 | Pantothenic acid level vs controls [1]: 0.68 | Phosphatidylcholine (C32:0) level vs controls [1]: 0.82 | Phosphatidylcholine (C34:1) level vs controls [1]: 0.81 | Phosphatidylcholine (C34:3) level vs controls [1]: 1.23 | Phosphatidylcholine (C36:1) level vs controls [1]: 0.76 | Phosphatidylcholine (C36:2) level vs controls [1]: 0.78 | Phosphatidylcholine (C36:3) level vs controls [1]: 0.82 | Phosphatidylcholine (C36:4) level vs controls [1]: 0.66 | Phosphatidylcholine (C36:5) level vs controls [1]: 0.71 | Phosphatidylethanolamine (C36:3) level vs controls [1]: 0.86 | Phosphatidylethanolamine (C38:3) level vs controls [1]: 1.05 | Phosphatidylethanolamine (C38:5) level vs controls [1]: 0.82 | Phosphatidylethanolamine (C38:6) level vs controls [1]: 0.91 | Phosphatidylethanolamine (C40:7) level vs controls [1]: 0.68 | Phosphocholine level vs controls [1]: 0.79 | Propionylcarnitine level vs controls [1]: 0.79 | S-Adenosylhomocysteine level vs controls [1]: 0.84 | Sphingomyelin (d32:2) level vs controls [1]: 0.65 | Sphingomyelin (d33:1) level vs controls [1]: 0.93 | Sphingomyelin (d34:0) level vs controls [1]: 1.12 | Sphingomyelin (d35:1) level vs controls [1]: 0.85 | Sphingomyelin (d36:1) level vs controls [1]: 0.84 | Sphingomyelin (d36:2) level vs controls [1]: 0.76 | Sphingomyelin (d37:1) level vs controls [1]: 0.89 | Sphingomyelin (d38:1) level vs controls [1]: 0.89 | Sphingomyelin (d38:2) level vs controls [1]: 0.83 | Sphingomyelin (d39:1) level vs controls [1]: 1.01 | Sphingomyelin (d40:2) level vs controls [1]: 0.87 | Sphingomyelin (d41:2) level vs controls [1]: 0.90 | Sphingomyelin (d42:2) level vs controls [1]: 0.85 | Taurine level vs controls [1]: 0.61 | Triacylglycerol (C34:1.C18:3) level vs controls [1]: 1.73 | Triacylglycerol (C34:2.C18:0) level vs controls [1]: 2.66 | Triacylglycerol (C34:2.C18:1) level vs controls [1]: 2.04 | Triacylglycerol (C36:4.C16:0) level vs controls [1]: 1.86 | Triacylglycerol (C36:4.C18:0) level vs controls [1]: 2.14

CCC(CC)Nc1c([N+](=O)[O-])cc(C)c(C)c1[N+](=O)[O-] [Pendimethalin]
Carnitine level vs controls [2]: 0.76 | Ceramide (d16:1.C24:0) level vs controls [2]: 1.35 | Ceramide (d17:1.C24:0) level vs controls [2]: 1.40 | Ceramide (d18:1.C20:0) level vs controls [2]: 0.81 | Ceramide (d18:1.C22:1) level vs controls [2]: 0.43 | Ceramide (d18:1.C24:1) level vs controls [2]: 0.54 | Ceramide (d18:2.C16:0) level vs controls [2]: 2.06 | Ceramide (d18:2.C23:0) level vs controls [2]: 1.14 | Ceramide (d18:2.C24:0) level vs controls [2]: 1.87 | Ceramide (d18:2.C24:1) level vs controls [2]: 1.17 | Choline plasmalogen (C36:4) level vs controls [2]: 0.63 | Choline plasmalogen (C36:5) level vs controls [2]: 0.68 | Cysteinylglycine level vs controls [2]: 1.14 | Flavin adenine dinucleotide (FAD) level vs controls [2]: 1.14 | Glutathione (GSH) level vs controls [2]: 1.12 | Hexanoylcarnitine level vs controls [2]: 0.69 | Isopentenyl pyrophosphate (IPP) level vs controls [2]: 2.79 | Lysophosphatidylcholine (C14:0) level vs controls [2]: 2.28 | Lysophosphatidylcholine (C16:0) level vs controls [2]: 2.37 | Lysophosphatidylcholine (C20:0) level vs controls [2]: 2.37 | Lysophosphatidylcholine (C20:1) level vs controls [2]: 1.47 | Lysophosphatidylcholine (C20:4) level vs controls [2]: 2.32 | Lysophosphatidylcholine (C22:0) level vs controls [2]: 3.44 | Lysophosphatidylcholine (C24:0) level vs controls [2]: 4.49 | Lysophosphatidylcholine (C24:1) level vs controls [2]: 3.59 | Lysophosphatidylethanolamine (C16:0) level vs controls [2]: 1.81 | Lysophosphatidylethanolamine (C18:0) level vs controls [2]: 2.07 | N-Acetylglucosamine level vs controls [2]: 0.93 | N-Acetylserine level vs controls [2]: 1.47 | O-Acetylcarnitine level vs controls [2]: 1.02 | Pantothenic acid level vs controls [2]: 0.78 | Phosphatidylcholine (C32:0) level vs controls [2]: 1.93 | Phosphatidylcholine (C34:0) level vs controls [2]: 1.83 | Phosphatidylcholine (C34:2) level vs controls [2]: 0.64 | Phosphatidylcholine (C34:3) level vs controls [2]: 0.79 | Phosphatidylcholine (C36:0) level vs controls [2]: 2.49 | Phosphatidylcholine (C36:1) level vs controls [2]: 0.93 | Phosphatidylcholine (C36:2) level vs controls [2]: 0.52 | Phosphatidylcholine (C36:3) level vs controls [2]: 0.73 | Phosphatidylcholine (C36:4) level vs controls [2]: 1.10 | Phosphatidylcholine (C38:6) level vs controls [2]: 1.15 | Phosphatidylethanolamine (C32:0) level vs controls [2]: 3.04 | Phosphatidylethanolamine (C34:0) level vs controls [2]: 2.78 | Phosphatidylethanolamine (C34:1) level vs controls [2]: 1.48 | Phosphatidylethanolamine (C34:2) level vs controls [2]: 0.68 | Phosphatidylethanolamine (C36:0) level vs controls [2]: 3.98 | Phosphatidylethanolamine (C36:1) level vs controls [2]: 1.46 | Phosphatidylethanolamine (C36:3) level vs controls [2]: 0.82 | Phosphatidylethanolamine (C38:5) level vs controls [2]: 0.79 | Phosphatidylethanolamine (C40:7) level vs controls [2]: 0.57 | Proline level vs controls [2]: 0.89 | Propionylcarnitine level vs controls [2]: 0.65 | Sphingomyelin (d32:1) level vs controls [2]: 0.92 | Sphingomyelin (d35:1) level vs controls [2]: 1.07 | Sphingomyelin (d38:2) level vs controls [2]: 0.76 | Sphingomyelin (d40:2) level vs controls [2]: 0.93 | Sphingomyelin (d41:2) level vs controls [2]: 0.79 | Sphingomyelin (d42:2) level vs controls [2]: 0.73 | Triacylglycerol (C30:0.C18:1) level vs controls [2]: 0.81 | Triacylglycerol (C32:0.C16:1) level vs controls [2]: 0.66 | Triacylglycerol (C32:1.C16:1) level vs controls [2]: 0.58 | Triacylglycerol (C34:0.C18:1) level vs controls [2]: 0.96 | Triacylglycerol (C34:1.C16:0) level vs controls [2]: 0.79 | Triacylglycerol (C34:1.C18:1) level vs controls [2]: 0.71 | Triacylglycerol (C34:2.C18:0) level vs controls [2]: 0.87 | Triacylglycerol (C34:2.C18:1) level vs controls [2]: 0.44 | Triacylglycerol (C36:1.C18:0) level vs controls [2]: 0.86 | Triacylglycerol (C36:1.C18:1) level vs controls [2]: 0.65 | Triacylglycerol (C36:1.C18:2) level vs controls [2]: 0.83 | Triacylglycerol (C36:2.C18:1) level vs controls [2]: 0.49 | Triacylglycerol (C36:3.C18:1) level vs controls [2]: 0.78 | Tyrosine level vs controls [2]: 1.14 | myo-Inositol-2-phosphate level vs controls [2]: 0.76 | Sphingomyelin (d34:2) level vs controls (Suppl Fig 10, C3 (C2 for Aroclor), first of two lines with this name): 1.11 | Sphingomyelin (d34:2) level vs controls (Suppl Fig 10, C3 (C2 for Aroclor), second of two lines with this name): 1.27
